From US20230031406A1, “COMPOUNDS AND COMPOSITIONS FOR TREATING CONDITIONS ASSOCIATED WITH NLRP ACTIVITY” (Novartis AG, priority 2018, published 2023)

These compounds were tested on PMA-differentiated THP-1 cells (assay: IL-1β production in PMA-differentiated THP-1 cells stimulated with gramicidin (hTHP-1 assay containing 2% fetal bovine serum; Procedures 1 and 2)). Conditions: Homo sapiens, THP-1, Table B1; 2% fetal bovine serum; class symbols; read-out: Average IC50 of compounds in hTHP-1 assay: hTHP-1 IC50.
Type: cell-based, human
Procedure, shortened: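 IL-1β release from PMA-differentiated THP-1 macrophage-like cells was triggered by 5 μM gramicidin for 2 h after 1 h compound exposure, then measured by HTRF.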

Row | SMILES | IC50 [µM]
1 | Cc1cc(C2CC2)nc(NC(=O)N=S(N)(=O)c2ncc(C(C)(C)O)s2)n1 (single isomer, unassigned) [Compound 185a, (R) or (S)-N′-((4-cyclopropyl-6-methylpyrimidin-2-yl)carbamoyl)-5-(2-hydroxypropan-2-yl)thiazole-2-sulfonimidamide] | 5 to 30
2 | CC1(C)CCc2c1nc1c(c2NC(=O)N=S(N)(=O)c2cnc(C(C)(O)CO)s2)CCC1 (single isomer, unassigned) [Compound 201a, (R, R) or (S, R) or (R, S) or (S, S)-2-(1,2-Dihydroxypropan-2-yl)-N′-((3,3-dimethyl-1,2,3,5,6,7-hexahydrodicyclopenta [b,e]pyridin-8-yl)carbamoyl) thiazole-5-sulfonimidamide] | 0.04 to 0.2

Same assay, conditions: Homo sapiens, THP-1, Table B1; 2% fetal bovine serum; numeric bounds; read-out: Average IC50 of compounds in hTHP-1 assay: hTHP-1 IC50

Row | SMILES | IC50 [µM]
3 | CC(C)(O)c1ncc(S(N)(=O)=NC(=O)Nc2c3c(nc4c2CCC4F)CCC3)s1 (single isomer, unassigned) [Compound 183b, (S,S) or (S,R)-N′-((3-fluoro-1,2,3,5,6,7-hexahydrodicyclo-penta[b,e]pyridin-8-yl)carbamoyl)-2-(2-hydroxypropan-2-yl)thiazole-5-sulfonimidamide] | > 30
4 | Cc1cc(C2CC2)nc(NC(=O)N=S(N)(=O)c2ncc(C(C)(C)O)s2)n1 (single isomer, unassigned) [Compound 185b, (S) or (R)-N′-((4-cyclopropyl-6-methylpyrimidin-2-yl)carbamoyl)-5-(2-hydroxypropan-2-yl)thiazole-2-sulfonimidamide] | > 30

Same assay, conditions: Homo sapiens, THP-1, Table B2; 2% fetal bovine serum; class symbols; read-out: hTHP-1 IC50

Row | SMILES | IC50 [µM]
5 | CC(C)c1cc(NC(=O)N=S(N)(=O)c2cc(C(C)(C)O)cs2)c2c(n1)CCC2 (single isomer, unassigned) [Compound 182b, (R) or (S)-4-(2-Hydroxypropan-2-yl)-N′-((2-isopropyl-6,7-dihydro-5H-cyclopenta[b]pyridin-4-yl)carbamoyl) thiophene-2-sulfonimidamide] | 5 to 30
6 | Cc1cc(C2CC2)nc(NC(=O)N=S(N)(=O)c2ncc(C(C)(C)O)s2)n1 (single isomer, unassigned) [Compound 185a, (R) or (S)-N′-((4-cyclopropyl-6-methylpyrimidin-2-yl)carbamoyl)-5-(2-hydroxypropan-2-yl)thiazole-2-sulfonimidamide] | 5 to 30
7 | CC1(C)CCc2c1nc1c(c2NC(=O)N=S(N)(=O)c2cnn3c2OCCC3)CCC1 (single isomer, unassigned) [Compound 304b, (R) or (S)-N′-((3,3-dimethyl-1,2,3,5,6,7-hexahydrodicyclopenta [b,e]pyridin-8-yl)carbamoyl)-6,7-dihydro-5H-pyrazolo[5,1-b][1,3]oxazine-3-sulfonimidamide] | 1 to 5
8 | Cc1c(C2CC2)nc2c(c1NC(=O)N=S(N)(=O)c1cnn3c1OCCC3)CCC2 (single isomer, unassigned) [Compound 306b, (R) or (S)-N′-((2-cyclopropyl-3-methyl-6,7-dihydro-5H-cyclopenta[b]pyridin-4-yl)carbamoyl)-6,7-dihydro-5H-pyrazolo[5,1-b][1,3] oxazine-3-sulfonimidamide] | 5 to 30

Same assay, conditions: Homo sapiens, THP-1, Table B2; 2% fetal bovine serum; numeric bounds; read-out: hTHP-1 IC50

Row | SMILES | IC50 [µM]
9 | Cc1cc(C2CC2)nc(NC(=O)N=S(N)(=O)c2ncc(C(C)(C)O)s2)n1 (single isomer, unassigned) [Compound 185b, (S) or (R)-N′-((4-cyclopropyl-6-methylpyrimidin-2-yl)carbamoyl)-5-(2-hydroxypropan-2-yl)thiazole-2-sulfonimidamide] | > 30
10 | CC1(C)CCc2c1nc1c(c2NC(=O)N=S(N)(=O)c2cnn3c2OCCC3)CCC1 (single isomer, unassigned) [Compound 304a, (S) or (R)-N′-((3,3-dimethyl-1,2,3,5,6,7-hexahydrodicyclopenta [b,e]pyridin-8-yl)carbamoyl)-6,7-dihydro-5H-pyrazolo[5,1-b][1,3] oxazine-3-sulfonimidamide] | > 30

Same assay, conditions: Table B1; 2% fetal bovine serum; class symbols; read-out: Average IC50 of compounds in hTHP-1 assay: hTHP-1 IC50

Row | SMILES | IC50 [µM]
11 | CC(C)(O)c1ncc(S(N)(=O)=NC(=O)Nc2c3c(nc4c2CCC4F)CCC3)s1 (single isomer, unassigned) [Compound 183a, (R,R) or (R,S)-N′-((3-fluoro-1,2,3,5,6,7-hexahydrodicyclo-penta[b,e]pyridin-8-yl)carbamoyl)-2-(2-hydroxypropan-2-yl)thiazole-5-sulfonimidamide] | 1 to 5
12 | CC(C)(O)c1ncc(S(N)(=O)=NC(=O)Nc2c3c(nc4c2CCC4F)CCC3)s1 (single isomer, unassigned) [Compound 183c, (R,S) or (R,R)-N′-((3-fluoro-1,2,3,5,6,7-hexahydrodicyclo-penta[b,e]pyridin-8-yl)carbamoyl)-2-(2-hydroxypropan-2-yl)thiazole-5-sulfonimidamide] | 5 to 30
13 | CC1CCc2c1nc1c(c2NC(=O)N=S(N)(=O)c2ccn(C(F)F)n2)CCC1 (single isomer, unassigned) [Compound 184a, (R,R) or (R,S)-1-(difluoro-methyl)-N′-((3-methyl-1,2,3,5,6,7-hexahydro-dicyclopenta[b,e]pyridin-8-yl)carbamoyl)-1H-pyrazole-3-sulfonimidamide] | 0.04 to 0.2
14 | CC1CCc2c1nc1c(c2NC(=O)N=S(N)(=O)c2ccn(C(F)F)n2)CCC1 (single isomer, unassigned) [Compound 184b, (S,S) or (S,R)-1-(difluoro-methyl)-N′-((3-methyl-1,2,3,5,67-hexahydro-dicyclopenta[b,e]pyridin-8-yl)carbamoyl)-1H-pyrazole-3-sulfonimidamide] | 5 to 30
15 | CC1CCc2c1nc1c(c2NC(=O)N=S(N)(=O)c2ccn(C(F)F)n2)CCC1 (single isomer, unassigned) [Compound 184c, (R,S) or (R,R)-1-(difluoro-methyl)-N′-((3-methyl-1,2,3,5,6,7-hexahydro-dicyclopenta[b,e]pyridin-8-yl)carbamoyl)-1H-pyrazole-3-sulfonimidamide] | 5 to 30
16 | CC1CCc2c1nc1c(c2NC(=O)N=S(N)(=O)c2ccn(C(F)F)n2)CCC1 (single isomer, unassigned) [Compound 184d, (S,R) or (S,S)-1-(difluoro-methyl)-N′-((3-methyl-1,2,3,5,6,7-hexahydro-dicyclopenta[b,e]pyridin-8-yl)carbamoyl)-1H-pyrazole-3-sulfonimidamide] | 1 to 5

Same assay, conditions: Table B1; 2% fetal bovine serum; numeric bounds; read-out: Average IC50 of compounds in hTHP-1 assay: hTHP-1 IC50

Row | SMILES | IC50 [µM]
17 | CC(C)(O)c1ncc(S(N)(=O)=NC(=O)Nc2c3c(nc4c2CCC4F)CCC3)s1 (single isomer, unassigned) [Compound 183d, (S,R) or (S,S)-N′-((3-fluoro-1,2,3,5,6,7-hexahydrodicyclo-penta[b,e]pyridin-8-yl)carbamoyl)-2-(2-hydroxypropan-2-yl)thiazole-5-sulfonimidamide] | > 30

Same assay, conditions: Table B2; 2% fetal bovine serum; class symbols; read-out: hTHP-1 IC50

Row | SMILES | IC50 [µM]
18 | CC1(C)CCc2c1nc1c(c2NC(=O)N=S(N)(=O)c2cnc(C(C)(O)CO)s2)CCC1 (single isomer, unassigned) [Compound 201a, (R, R) or (S, R) or (R, S) or (S, S)-2-(1,2-Dihydroxypropan-2-yl)-N′-((3,3-dimethyl-1,2,3,5,6,7-hexahydrodicyclopenta [b,e]pyridin-8-yl)carbamoyl) thiazole-5-sulfonimidamide] | 0.008 to 0.04
19 | CC1(C)CCc2c1nc1c(c2NC(=O)N=S(N)(=O)c2cnc(C(C)(O)CO)s2)CCC1 (single isomer, unassigned) [Compound 201b, (S, R) or (R, R) or (R, S) or (S, S)-2-(1,2-Dihydroxypropan-2-yl)-N′-((3,3-dimethyl-1,2,3,5,6,7-hexahydrodicyclopenta [b,e]pyridin-8-yl)carbamoyl) thiazole-5-sulfonimidamide] | 0.04 to 0.2
20 | CC1(C)CCc2c1nc1c(c2NC(=O)N=S(N)(=O)c2cnc(C(C)(O)CO)s2)CCC1 (single isomer, unassigned) [Compound 201c, (S, S) or (R, S) or (S, R) or (R. R)-2-(1,2-Dihydroxypropan-2-yl)-N′-((3,3-dimethyl-1,2,3,5,6,7-hexahydrodicyclopenta [b,e]pvridin-8-yl)carbamoyl) thiazole-5-sulfonimidamide] | 5 to 30
21 | CC1(C)CCc2c1nc1c(c2NC(=O)N=S(N)(=O)c2cnc(C(C)(O)CO)s2)CCC1 (single isomer, unassigned) [Compound 201d, (R, S) or (S, S) or (S, R) or (R, R)-2-(1.2-Dihydroxypropan-2-yl)-N′-((3,3-dimethyl-1,2,3,5,6.7-hexahydrodicyclopenta [b,e]pvridin-8-yl)carbamoyl)thiazole-5-sulfonimidamide] | 5 to 30
22 | CC1(C)CCc2c1nc1c(c2NC(=O)N=S(N)(=O)c2cnc(C(C)(O)CO)s2)CCC1 (single isomer, unassigned) [Compound 201e, (R, R) and (S, R) or (R, S) and (S, S)-2-(1,2-Dihydroxypropan-2-yl)-N′-((3,3-dimethyl-1,2,3.5.6.7-hexahydrodicyclopenta [b,e]pyridin-8-yl)carbamoyl)thiazole-5-sulfonimidamide] | 0.04 to 0.2
23 | CC1(C)CCc2c1nc1c(c2NC(=O)N=S(N)(=O)c2cnc(C(C)(O)CO)s2)CCC1 (single isomer, unassigned) [Compound 201f, (R, S) and (S, S) or (S, R) and (R, R)-2-(1.2-Dihydroxvpropan-2-yl)-N′-((3,3-dimethyl-1,2,3.5.6.7-hexahydrodicyclopenta [b,e]pvridin-8-yl)carbamoyl)thiazole-5-sulfonimidamide] | 5 to 30
24 | Cc1c(C2CC2)nc2c(c1NC(=O)N=S(N)(=O)c1cnn3c1OCCC3)CCC2 (single isomer, unassigned) [Compound 306a, (S) or (R)-N′-((2-cyclopropyl-3-methyl-6,7-dihydro-5H-cyclopenta[b]pyridin-4-yl)carbamoyl)-6,7-dihydro-5H-pyrazolo[5,1-b] [1,3]oxazine-3-sulfonimidamide] | 5 to 30
25 | Cc1c(C(F)(F)F)nc2c(c1NC(=O)N=S(N)(=O)c1cnc(C(C)(O)CO)s1)CCC2 (single isomer, unassigned) [Compound 605a, (S, RS) or (R, RS) 2-(-1,2-dihydroxypropan-2-yl)-N′-((3-methyl-2-(trifluoromethyl)-6,7-dihydro-5H-cyclopenta[b]pyridin-4-yl)carbamoyl)thiazole-5-sulfonimidamide] | 0.2 to 1
26 | Cc1c(C(F)(F)F)nc2c(c1NC(=O)N=S(N)(=O)c1cnc(C(C)(O)CO)s1)CCC2 (single isomer, unassigned) [Compound 605b, (R, R) and (S, R) or (R, S) and (S, S)-2-(l,2-Dihydroxypropan-2-yl)-N′-((3-methyl-2-(trifluoromethyl)-6,7-dihydro-5H-cyclopenta[b]pyridin-4-yl)carbamoyl) thiazole-5-sulfonimidamide] | 0.2 to 1
